In patent US10209240B2, “Predicting human developmental toxicity of pharmaceuticals using human stem-like cells and metabolomic ratios” (STEMINA BIOMARKER DISCOVERY, INC., priority 2012, dated 2019):
Where two headings read alike, the source gives them in different places.

Legend:
[1] = therapeutic peak plasma in vivo concentration, human, cited from earlier work
Rabbit = conditions: training and test set; cited from earlier work
hES cells [2] = assay: ADMA/cystine ratio simplified predictive model in hES cell spent media; type: cell-based, human; conditions: single dose per treatment; ratios less than 0.9 indicate teratogenicity
From the text: (§1) This simplified model is based on a ratio of the reference treatment (DMSO) normalized values of ADMA and cystine.
The X-axis is the reference normalized ratio of ADMA/Cystine. The y-axis is the training set of pharmaceuticals. Grey color with triangle glyphs represents teratogens and black color with circle glyphs represents non-teratogens. Each glyph point represents the media value of an independent experimental block (6 reps per block). The crosshair glyphs mark the sample medians. In FIG. 9, grey vertical line is threshold of teratogenicity, grey horizontal lines are the median absolute deviations, and black vertical line designates 1.0. The arrows at the bottom indicate the values used for differentiation of teratogens and nonteratogens, utilizing a cut off of 0.9 (grey line).

Humans = conditions: cited from earlier work; for Humans (known human developmental toxicity): training and test set; for Known Effect: validation and test set treatments of Example 2
Rodent = conditions: training and test set; cited from earlier work
rat whole embryo = conditions: training and test set; weak/moderate and strong teratogens both labeled teratogen; cited from earlier work
[3] = summarized from TERIS and Briggs et al. 2011, cited from earlier work
[4] = test system: mouse embryonic stem cell; conditions: training and test set; weak/moderate and strong teratogens both labeled teratogen; cited from earlier work
hES cells [5] = assay: devTOX computational model predictions (Version 2.0, Version 2.1) from hES cell metabolomics; type: cell-based, human; conditions: single dose per treatment (Dose column)
From the text: The selection process weighted the predictive capacity of a feature, overall intensity, and peak shape to identify very well behaved features/metabolites that could be measured by targeted LC-MS or even by other detection systems.
as §1

zebrafish = conditions: training and test set; weak/moderate and strong teratogens both labeled teratogen; cited from earlier work
WA09 hES cells [6] = test system: WA09 hES cells
WA09 hES cells [7] = assay: Phase 2 targeted biomarker assay, ornithine/cystine ratio, 9-point dose response
Summary of the method: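 WA09 hES cells (≤ passage 40), plated as single cells at 100,000/well on Matrigel in mTeSR1 with 10 μM Y27632, dosed 24 h later with nine 3-fold dilutions, 0.04–300 μM, 0.1% DMSO, for 72 h. Final-24 h spent medium, spiked with 13C6-arginine and filtered (<10 kDa), analysed by LC-HRMS; viability by CellTiter-Fluor.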

[8] = test set, interpolated concentration where cell viability dose response curve crosses teratogenicity threshold 0.88, 72 hours
[9] = test set, teratogenicity potential scored against therapeutic Cmax
[10] = training and test set, o/c ratio scored against therapeutic Cmax
[11] = training set, teratogenicity potential scored against therapeutic Cmax
[12] = training set, interpolated concentration where o/c ratio dose response curve crosses teratogenicity threshold 0.88, 72 hours

| Compound | Cmax ([1]; training set) | Rabbit prediction (Rabbit) | Model Predictions ADMA/Cystine (hES cells [2]) | Humans (known human developmental toxicity) (Humans) | Known Effect (Humans) | Rodent prediction (Rodent) | WEC prediction (rat whole embryo) | Preclinical in vivo and known human developmental effects ([3]; training set compounds) | mEST prediction [4] | Model Predictions Version 2.0 (hES cells [5]) | Model Predictions Version 2.1 (hES cells [5]) | ZET prediction (zebrafish) | Viability Prediction (WA09 hES cells [6]) | Teratogenicity Potential (μM) Cell Viability (WA09 hES cells [6]; human, 72 h) | O/C Ratio Prediction (WA09 hES cells [7]) | Targeted Biomarker Assay prediction (WA09 hES cells [7]) | Teratogenicity Potential (μM) O/C Ratio (WA09 hES cells [7]; human, 72 h) | Cmax ([1]; test set) | Preclinical in vivo and known human developmental effects ([3]; test set compounds) | also measured |
| --- | --- | --- | --- | --- | --- | --- | --- | --- | --- | --- | --- | --- | --- | --- | --- | --- | --- | --- | --- | --- |
| O=c1[nH]cc(F)c(=O)[nH]1 [5-Fluorouracil] | 4.25 µM | TER | Ter | TER | Ter | TER | TER^f,k | Craniofacial, central | TER^b,i | Ter | Ter | TER^c | TER | 2 µM | TER | TER | 3 µM | – | – | Cytotoxicity at the Cmax exposure level (WA09 hES cells [6]; human, 72 h): greater than 30%; Change in the o/c ratio, also relative to cytotoxicity (WA09 hES cells [7]): change in o/c ratio that is directly correlated with a decrease in cell viability |
| CC(=O)Nc1ccc(O)cc1 [Acetaminophen] | – | – | – | NON | – | NON | TER^k | – | – | – | – | NON^e | NON | >300 µM | NON | NON | >300 µM | 116 µM | None | – |
| CC(C)(S)[C@@H](N)C(=O)O [D-Penicillamine] | – | – | – | TER | – | TER | NON^f | – | NON^m | – | – | NON^d | NON | >300 µM | TER | TER | <0.04 µM | 13.4 µM | Skeletal | Classification by o/c ratio in the targeted biomarker assay (WA09 hES cells [7]): correctly classify |
| NNC(=O)c1ccncc1 [Isoniazid] | 51 µM | NON | Non | NON | Non | NON | TER^f,j | None | NON^b,i | Ter | Ter | NON^c,n | NON | >300 µM | NON | NON | 165.4 µM | – | – | – |
| CCOC(=O)N1CCC(=C2c3ccc(Cl)cc3CCc3cccnc32)CC1 [Loratadine] | – | NON | – | – | – | NON | NON^f,j | – | NON^i | – | – | TER^d | – | – | – | – | – | – | None | Teratogenicity Potential (μM) Cell Viability (WA09 hES cells [6]; [8]): 76.3 µM; Viability Prediction (WA09 hES cells [6]; [9]): NON; Targeted Biomarker Assay prediction (WA09 hES cells [7]; [10]): NON |
| CN(Cc1cnc2nc(N)nc(N)c2n1)c1ccc(C(=O)N[C@@H](CCC(=O)O)C(=O)O)cc1 [Methotrexate] | 0.2 µM | TER | Ter | TER | Ter | TER | TER^f | Craniofacial, limb, skeletal, | TER^b,i | Ter | Ter | TER^d | TER | 0.05 µM | TER | TER | 0.05 µM | – | – | Cytotoxicity at the Cmax exposure level (WA09 hES cells [6]; human, 72 h): greater than 30% |
| CCN(CC)CCNC(=O)c1cc(Cl)c(N)cc1OC [Metoclopramide] | – | NON | Non | NON | Non | NON | NON^f,j | – | TER^i,m | Ter | Non | NON^d | NON | >300 µM | NON | NON | 190.8 µM | 0.15 µM | None | – |
| CC1(C)S[C@@H]2[C@H](NC(=O)Cc3ccccc3)C(=O)N2[C@H]1C(=O)O [Penicillin G] | 135 µM | NON | Non | NON | Non | NON | NON^f,j | None | NON^b,i | Non | Non | NON^c,e,n | – | – | – | – | – | – | – | Teratogenicity Potential (μM) Cell Viability (WA09 hES cells [6]; training set, interpolated concentration where cell viability dose response curve crosses teratogenicity threshold 0.88, 72 hours): >300 µM; Viability Prediction (WA09 hES cells [6]; [11]): NON; Targeted Biomarker Assay prediction (WA09 hES cells [7]; [10]): NON; Teratogenicity Potential (μM) O/C Ratio (WA09 hES cells [7]; [12]): >300 µM; O/C Ratio Prediction (WA09 hES cells [7]; [11]): NON |
| S=P(N1CC1)(N1CC1)N1CC1 [ThioTEPA] | – | TER | – | TER | – | TER | – | – | – | – | – | TER^v | – | – | TER | TER | 0.04 µM | 7 µM | Skeletal, embryo toxicity^c | Teratogenicity Potential (μM) Cell Viability (WA09 hES cells [6]; [8]): 0.5 µM; Viability Prediction (WA09 hES cells [6]; [9]): TER |
| Cytosine Arabinoside | 0.6 µM | – | Ter | – | Ter | TER | TER^j | Limb | TER^i | Ter | Ter | TER^n | – | – | – | – | – | – | – | Teratogenicity Potential (μM) Cell Viability (WA09 hES cells [6]): 0.1 µM; Teratogenicity Potential (μM) O/C Ratio (WA09 hES cells [7]; [12]): 0.04 µM |
